Where two headings read alike, the source gives them in different places. Bounds are passed on as bounds.

The IC50 is the concentration that inhibits the measured activity by half.

For assay [1], the system named is wild-type HIV-1 (HIV-1LAI) in H9 cells (non-permissive). Kind of assay: microbe, parasite or virus in culture. In kind it is cell-based.
In assay [2] the test system is wild-type HIV-1 (HIV-1LAI) in MT-4 cells (permissive). In words: Antiviral activity assay: wild-type HIV-1 in permissive MT4 cells, reverse transcriptase activity in culture supernatants. Type of assay: cell-based.
[3] abbreviates: Human immunodeficiency virus 1, H9, read-out: Antiviral activity (IC50 μM) H9, Table 2, wild-type HIV-1, non-permissive H9 cells.
Where [4] appears, read: Human immunodeficiency virus 1, H9, read-out: Antiviral activity (IC50 μM) H9 Cells, Table 4, wild-type HIV-1, non-permissive H9 cells.
The mark [5] stands for this setting: Human immunodeficiency virus 1, H9, read-out: Antiviral activity (IC50 μM) H9 Cells, Table 7, wild-type HIV-1, non-permissive H9 cells.
Setting [6] is: Human immunodeficiency virus 1, H9, read-out: Antiviral activity (IC50 μM) H9 cells, Table 5, wild-type HIV-1, non-permissive H9 cells.
The mark [7] stands for this setting: Human immunodeficiency virus 1, H9, read-out: Antiviral activity (IC50 μM) H9 cells, Table 8, wild-type HIV-1, non-permissive H9 cells.
[8] abbreviates: Human immunodeficiency virus 1, H9, read-out: Antiviral activity (IC50 μM) H9 cells, wild-type HIV-1 (HIV-1LAI), H9 cells (non-permissive), RT activity in culture supernatants, compounds 1 to 50 μM.
Setting [9] is: Human immunodeficiency virus 1, MT4, Table 2, wild-type HIV-1, permissive MT4 cells, read-out: Antiviral activity (IC50 μM) MT4.
Setting [10] is: Human immunodeficiency virus 1, MT4, wild-type HIV-1 (HIV-1LAI), MT4 cells (permissive), RT activity in culture supernatants, compounds 1 to 50 μM, read-out: Antiviral activity (IC50 μM) MT4 cells.
The mark [11] stands for this setting: Human immunodeficiency virus 1, H9, read-out: IC50, anti-HIV-1 activity, non-permissive H9 cells.

Turning to `COc1ccccc1-n1cc(-c2ccccc2S(=O)(=O)c2ccc([N+](=O)[O-])cc2)nn1` [Compound 2ay, 1-(2-Methoxyphenyl)-4-(2-((4-nitrophenyl)sulfonyl)phenyl)-1H-1,2,3-triazole], the IC50 in assay [1] (setting [3]), in assay [1] (setting [4]), in assay [1] (setting [5]), in assay [1] (setting [6]), in assay [1] (setting [7]) and in assay [1] (setting [8]) was 13.8 µM each time. Further, the IC50 in assay [2] (setting [9]) and in assay [2] (setting [10]) was above 50 µM each time.

Regarding `COC(=O)c1ccc(Sc2ccccc2-c2cn(-c3ccccc3OC)nn2)cc1` [Compound 2bx, Methyl 4-((2-(1-(2-methoxyphenyl)-1H-1,2,3-triazol-4-yl)phenyl)thio)benzoate], the IC50 in assay [1] (setting [3]), in assay [1] (setting [6]), in assay [1] (setting [7]), in assay [1] (setting [8]), in assay [2] (setting [9]) and in assay [2] (setting [10]) was above 50 µM throughout.

With `COC(=O)c1ccc(S(=O)(=O)c2ccccc2-c2cn(-c3ccccc3OC)nn2)cc1` [Compound 2by, Methyl 4-((2-(1-(2-methoxyphenyl)-1H-1,2,3-triazol-4-yl)phenyl)sulfonyl)benzoate], the IC50 in assay [1] (setting [3]), in assay [1] (setting [6]), in assay [1] (setting [7]), in assay [1] (setting [8]), in assay [2] (setting [9]) and in assay [2] (setting [10]) was above 50 µM in each case.

`COc1ccc(S(=O)(=O)c2ccccc2-c2cn(-c3ccccc3OC)nn2)cc1` [Compound 2cy, 1-(2-Methoxyphenyl)-4-(2-((4-methoxyphenyl)sulfonyl)phenyl)-1H-1,2,3-triazole]: the IC50 in assay [1] (setting [3]), in assay [1] (setting [4]), in assay [1] (setting [5]), in assay [1] (setting [6]), in assay [1] (setting [7]) and in assay [1] (setting [8]) was 4.3 µM in each case. Moreover, the half-maximal inhibitory concentration (IC50) in assay [2] (setting [9]) and in assay [2] (setting [10]) was above 50 µM in each case.

Take `COc1ccccc1-n1cc(-c2ccccc2S(=O)(=O)c2ccc(C(F)(F)F)cc2)nn1` [Compound 2dy, 1-(2-Methoxyphenyl)-4-(2-((4-(trifluoromethyl)phenyl)sulfonyl)phenyl)-1H-1,2,3-triazole]: the IC50 in assay [1] (setting [3]), in assay [1] (setting [4]), in assay [1] (setting [5]), in assay [1] (setting [6]), in assay [1] (setting [7]) and in assay [1] (setting [8]) was 4.8 µM in each case. The IC50 in assay [2] (setting [9]) and in assay [2] (setting [10]) was above 50 µM throughout.

With `COc1ccccc1-n1cc(-c2ccccc2Sc2ccc(N)cc2)nn1` [Compound 2ex, 4-((2-(1-(2-Methoxyphenyl)-1H-1,2,3-triazol-4-yl)phenyl)thio)aniline], the 50% inhibitory concentration (IC50) in assay [1] (setting [3]) was found to be 2.5 µM; in assay [1] (setting [4]) it was 7.5 µM; in assay [1] (setting [5]) it was 2.5 µM; in assay [1] (setting [6]), 2.5 µM; in assay [1] (setting [7]), 2.5 µM; in assay [1] (setting [8]), 2.5 µM. In addition, the IC50 in assay [1] (setting [11]) is 1 to 3 µM; in assay [2] (setting [9]), above 50 µM; in assay [2] (setting [10]), above 50 µM.

As to `COc1ccccc1-n1cc(-c2ccccc2Sc2ccc(C(=O)O)cc2)nn1` [Compound 2fx, 4-((2-(1-(2-Methoxyphenyl)-1H-1,2,3-triazol-4-yl)phenyl)thio)benzoic Acid], the half-inhibitory concentration (IC50) in assay [1] (setting [3]), in assay [1] (setting [4]), in assay [1] (setting [5]), in assay [1] (setting [6]), in assay [1] (setting [7]) and in assay [1] (setting [8]) was 1 µM each time. The figures for the half-inhibitory concentration (IC50) in assay [1] (setting [11]), in assay [2] (setting [9]) and in assay [2] (setting [10]) were 1 to 3 µM, above 50 µM and above 50 µM, respectively.

With `COc1ccccc1-n1cc(-c2ccccc2S(=O)(=O)c2ccc(C(=O)O)cc2)nn1` [Compound 2fy, 4-((2-(1-(2-Methoxyphenyl)-1H-1,2,3-triazol-4-yl)phenyl)sulfonyl)benzoic acid], the IC50 in assay [1] (setting [3]), in assay [1] (setting [4]), in assay [1] (setting [5]), in assay [1] (setting [6]), in assay [1] (setting [7]) and in assay [1] (setting [8]) was 8.2 µM each time. For the same molecule, the half-maximal inhibitory concentration (IC50) in assay [2] (setting [9]) and in assay [2] (setting [10]) was above 50 µM throughout.

Take `COc1cccc(-n2cc(-c3ccccc3Sc3ccc([N+](=O)[O-])cc3)nn2)c1OC` [Compound 3ax, 1-(2,3-Dimethoxyphenyl)-4-(2-((4-nitrophenyl)thio)phenyl)-1H-1,2,3-triazole]: the concentration for half-maximal inhibition (IC50) in assay [1] (setting [3]), in assay [1] (setting [4]), in assay [1] (setting [5]), in assay [1] (setting [6]), in assay [1] (setting [7]) and in assay [1] (setting [8]) was 1.1 µM each time. For the same molecule, the figures for the half-maximal inhibitory concentration (IC50) in assay [1] (setting [11]), in assay [2] (setting [9]) and in assay [2] (setting [10]) were 1 to 3 µM, above 50 µM and above 50 µM, respectively.

As to `COc1cccc(-n2cc(-c3ccccc3S(=O)(=O)c3ccc([N+](=O)[O-])cc3)nn2)c1OC` [Compound 3ay, 1-(2,3-Dimethoxyphenyl)-4-(2-((4-nitrophenyl)sulfonyl)phenyl)-1H-1,2,3-triazole], the half-maximal inhibitory concentration (IC50) in assay [1] (setting [3]), in assay [1] (setting [6]), in assay [1] (setting [7]), in assay [1] (setting [8]), in assay [2] (setting [9]) and in assay [2] (setting [10]) was above 50 µM throughout.

For `COC(=O)c1ccc(Sc2ccccc2-c2cn(-c3cccc(OC)c3OC)nn2)cc1` [Compound 3bx, Methyl 4-((2-(1-(2,3-dimethoxyphenyl)-1H-1,2,3-triazol-4-yl)phenyl)thio)benzoate], the IC50 in assay [1] (setting [3]), in assay [1] (setting [4]), in assay [1] (setting [5]), in assay [1] (setting [6]), in assay [1] (setting [7]) and in assay [1] (setting [8]) was 8 µM in each case. Besides, the IC50 in assay [2] (setting [9]) and in assay [2] (setting [10]) was above 50 µM each time.

On to `COC(=O)c1ccc(S(=O)(=O)c2ccccc2-c2cn(-c3cccc(OC)c3OC)nn2)cc1` [Compound 3by, Methyl 4-((2-(1-(2,3-dimethoxyphenyl)-1H-1,2,3-triazol-4-yl)phenyl)sulfonyl)benzoate], for which the concentration for half-maximal inhibition (IC50) in assay [1] (setting [3]), in assay [1] (setting [4]), in assay [1] (setting [5]), in assay [1] (setting [6]), in assay [1] (setting [7]) and in assay [1] (setting [8]) was 4.7 µM in each case. For the same molecule, the IC50 in assay [2] (setting [9]) and in assay [2] (setting [10]) was above 50 µM throughout.

Regarding `COc1ccc(S(=O)(=O)c2ccccc2-c2cn(-c3cccc(OC)c3OC)nn2)cc1` [Compound 3cy, 1-(2,3-Dimethoxyphenyl)-4-(2-((4-methoxyphenyl)sulfonyl)phenyl)-1H-1,2,3-triazole], the IC50 in assay [1] (setting [3]), in assay [1] (setting [6]), in assay [1] (setting [7]), in assay [1] (setting [8]), in assay [2] (setting [9]) and in assay [2] (setting [10]) was above 50 µM in each case.

For the molecule `COc1cccc(-n2cc(-c3ccccc3Sc3ccc(C(F)(F)F)cc3)nn2)c1OC` [Compound 3dx, 1-(2,3-Dimethoxyphenyl)-4-(2-((4-(trifluoromethyl)phenyl)thio)phenyl)-1H-1,2,3-triazole], the IC50 in assay [1] (setting [3]), in assay [1] (setting [4]), in assay [1] (setting [5]), in assay [1] (setting [6]), in assay [1] (setting [7]) and in assay [1] (setting [8]) was 1.9 µM each time. For the same molecule, the IC50 in assay [1] (setting [11]) is 1 to 3 µM; in assay [2] (setting [9]) it was above 50 µM; in assay [2] (setting [10]), above 50 µM.

Consider `COc1cccc(-n2cc(-c3ccccc3S(=O)(=O)c3ccc(C(F)(F)F)cc3)nn2)c1OC` [Compound 3dy, 1-(2,3-Dimethoxyphenyl)-4-(2-((4-(trifluoromethyl)phenyl)sulfonyl)phenyl)-1H-1,2,3-triazole], for which the half-maximal inhibitory concentration (IC50) in assay [1] (setting [3]), in assay [1] (setting [6]), in assay [1] (setting [7]), in assay [1] (setting [8]), in assay [2] (setting [9]) and in assay [2] (setting [10]) was above 50 µM throughout.

Consider `COc1ccc(Sc2ccccc2-c2cn(-c3c(F)cccc3OC)nn2)cc1` [Compound 7cx, 1-(2-Fluoro-6-methoxyphenyl)-4-(2-((4-methoxyphenyl)thio)phenyl)-1H-1,2,3-triazole], for which the IC50 in assay [1] (setting [6]), in assay [1] (setting [7]) and in assay [1] (setting [8]) was above 50 µM in each case.

With `COc1cccc(F)c1-n1cc(-c2ccccc2Sc2ccc(C(F)(F)F)cc2)nn1` [Compound 7dx, 1-(2-Fluoro-6-methoxyphenyl)-4-(2-((4-(trifluoromethyl)phenyl)thio)phenyl)-1H-1,2,3-triazole], the 50% inhibitory concentration (IC50) in assay [1] (setting [6]), in assay [1] (setting [7]) and in assay [1] (setting [8]) was 10 µM in each case.

For the molecule `COc1cccc(F)c1-n1cc(-c2ccccc2Sc2ccc(C(=O)O)cc2)nn1` [Compound 7gx, 2-Hydroxy-N,N,N-trimethylethanaminium 4-((2-(1-(2-fluoro-6-methoxyphenyl)-1H-1,2,3-triazol-4-yl)phenyl)thio)benzoate], the 50% inhibitory concentration (IC50) was above 50 µM in assay [1] (read-out: Antiviral activity (IC50 μM) H9 cells, Table 5, wild-type HIV-1, non-permissive H9 cells); above 50 µM in assay [1] (read-out: Antiviral activity (IC50 μM) H9 cells, Table 8, wild-type HIV-1, non-permissive H9 cells); above 50 µM in assay [1] (read-out: Antiviral activity (IC50 μM) H9 cells, wild-type HIV-1 (HIV-1LAI), H9 cells (non-permissive), RT activity in culture supernatants, compounds 1 to 50 μM).
